Assay [1] relates to Escherichia coli. Nature of the assay: Antibacterial activity against Escherichia coli BL21(DE3) transfected with pET9a vector harboring class C beta lactamase, AmpC incubated for 16 to 20 hrs by broth microdilution method. As to conditions: time 16-20 hrs. The class given is functional. (In general: In broth dilution the organism is exposed to a series of concentrations in liquid medium.)

The subject of assay [2] is Escherichia coli. Nature of the assay: Antibacterial activity against Escherichia coli NIHJ JC-2 assessed as reduction in microbial growth incubated for 16 to 20 hrs by broth microdilution method. The class given is functional. Conditions: time 16-20 hrs.
Assay [3] concerns Enterobacter cloacae. Nature of the assay: Antibacterial activity against Enterobacter cloacae SR36276 producing class C beta-lactamase, AmpC assessed as reduction in microbial growth incubated for 16 to 20 hrs by broth microdilution method. It is filed as functional. Conditions: time 16-20 hrs.
The nature of assay [4]: Ratio of MIC for antibacterial activity against Escherichia coli BL21(DE3) transfected with pET9a vector harboring class C beta lactamase AmpC to MIC for antibacterial activity against Escherichia coli BL21(DE3). It is filed as functional.
Assay [5] concerns Klebsiella pneumoniae. Nature of the assay: Antibacterial activity against Klebsiella pneumoniae PLE producing class D beta-lactamase, OXA-48 assessed as reduction in microbial growth incubated for 16 to 20 hrs by broth microdilution method. It is filed as functional. Conditions: time 16-20 hrs.
The subject of assay [6] is Escherichia coli. The experiment in a line: Antibacterial activity against Escherichia coli BL21(DE3) transfected with pET9a vector harboring class A beta lactamase, CTX-M-15 incubated for 16 to 20 hrs by broth microdilution method. Conditions: time 16-20 hrs. It is filed as functional.
Assay [7] concerns Escherichia coli. The experiment in a line: Antibacterial activity against Escherichia coli BL21(DE3) transfected with pET9a empty vector incubated for 16 to 20 hrs by broth microdilution method. Conditions: time 16-20 hrs. The class given is functional.
Assay [8] has as its system Escherichia coli. The experiment in a line: Antibacterial activity against Escherichia coli BL21(DE3) transfected with pET9a vector harboring class B beta lactamase, NDM-1 incubated for 16 to 20 hrs by broth microdilution method. Conditions: time 16-20 hrs. It is filed as functional.
Assay [9] deals with Enterobacter cloacae. The experiment in a line: Antibacterial activity against Enterobacter cloacae IR32 producing class B beta-lactamase, NDM1 assessed as reduction in microbial growth incubated for 16 to 20 hrs by broth microdilution method. The class given is functional. Conditions: time 16-20 hrs.
In assay [10] the test system is Escherichia coli. The experiment in a line: Antibacterial activity against Escherichia coli SR34100 producing class A beta-lactamase, CTX-M-15 assessed as reduction in microbial growth incubated for 16 to 20 hrs by broth microdilution method. The class given is functional. As to conditions: time 16-20 hrs.
Assay [11] is described as follows: Ratio of MIC for antibacterial activity against Escherichia coli BL21(DE3) transfected with pET9a vector harboring class B beta lactamase NDM-1 to MIC for antibacterial activity against Escherichia coli BL21(DE3). It is filed as functional.
Assay [12] has as its system Escherichia coli. The experiment in a line: Antibacterial activity against Escherichia coli BL21(DE3) transfected with pET9a vector harboring class D beta lactamase, OXA-48 incubated for 16 to 20 hrs by broth microdilution method. Conditions: time 16-20 hrs. The class given is functional.
Assay [13] deals with Klebsiella pneumoniae. Nature of the assay: Antibacterial activity against Klebsiella pneumoniae JMI:211 producing class A beta-lactamase, KPC-2 assessed as reduction in microbial growth incubated for 16 to 20 hrs by broth microdilution method. It is filed as functional. Conditions: time 16-20 hrs.
In assay [14] the test system is Enterobacter cloacae. The experiment in a line: Antibacterial activity against Enterobacter cloacae 1,261,347 producing class A beta lactamase, PER-2 assessed as reduction in microbial growth incubated for 16 to 20 hrs by broth microdilution method. It is filed as functional. As to conditions: time 16-20 hrs.
In assay [15] the test system is Klebsiella pneumoniae. Nature of the assay: Antibacterial activity against Klebsiella pneumonia ATCC 13883 infected in cyclophosphamide-induced neutropenic Jcl:ICR mouse model assessed as log10 reduction in CFU at 3 mg/kg, sc administered at 2, 5 and 8 hrs after infection and measured at 10 hrs after infection. The class given is functional.
In assay [16] the test system is Enterobacterales. Nature of the assay: Antimicrobial activity against Enterobacterales producing NDM assessed as reduction in microbial growth measured after 16 to 20 hrs by broth microdilution method. The class given is functional. As to conditions: time 16-20 hrs.
Assay [17] in a line: Inhibition of CMY-2 in Escherichia coil BL21 assessed as inhibition of nitrocefin hydrolysis measured every 3 mins for 15 mins by UV spectrophotometer analysis. More on the design: species or system Escherichia coli BL21.
Assay [18] concerns Enterobacterales. Nature of the assay: Antimicrobial activity against Enterobacterales producing OXA-48 assessed as reduction in microbial growth measured after 16 to 20 hrs by broth microdilution method. The class given is functional. Conditions: time 16-20 hrs.
Assay [19] deals with Klebsiella pneumoniae. The experiment in a line: Antibacterial activity against Klebsiella pneumoniae ATCC13883 assessed as reduction in microbial growth incubated for 16 to 20 hrs by broth microdilution method. It is filed as functional. As to conditions: time 16-20 hrs.
Assay [20] has as its system Klebsiella pneumoniae. Nature of the assay: Antibacterial activity against Klebsiella pneumonia ATCC 13883 infected in cyclophosphamide-induced neutropenic Jcl:ICR mouse model assessed as log10 reduction in CFU at 10 mg/kg, sc administered at 2, 5 and 8 hrs after infection and measured at 10 hrs after infection. It is filed as functional.
Assay [21] has as its system Enterobacterales. Nature of the assay: Antimicrobial activity against Enterobacterales producing KPC assessed as reduction in microbial growth measured after 16 to 20 hrs by broth microdilution method. It is filed as functional. As to conditions: time 16-20 hrs.
Assay [22] deals with Enterobacterales. The experiment in a line: Antimicrobial activity against Enterobacterales producing VIM assessed as reduction in microbial growth measured after 16 to 20 hrs by broth microdilution method. It is filed as functional. As to conditions: time 16-20 hrs.

pKi: −log10 of the molar value. ≈ marks a conversion by molar mass, not a printed value.

The source of these data is ChEMBL document CHEMBL4808247 (Bioorg Med Chem, 2021).

As for `CC(C)(O/N=C(\C(=O)N[C@H]1CON(C2(C(=O)O)CCC(=O)O2)C1=O)c1csc(N)n1)C(=O)O` (stereo in doubt), the MIC in the assay with Escherichia coli [1] is 2 µg/mL (≈ 4.12 µM); in the assay with Escherichia coli [2], 0.25 µg/mL; with Enterobacter cloacae [3], above 32 µg/mL; in the assay on Klebsiella pneumoniae [5], 1 µg/mL; in the assay on Escherichia coli [6], 0.063 µg/mL (≈ 0.13 µM); against Escherichia coli [7] it was 0.063 µg/mL (≈ 0.13 µM). Further, the MIC against Escherichia coli [8] stood at 0.25 µg/mL (≈ 0.515 µM); with Enterobacter cloacae [9], 1 µg/mL; in the assay with Escherichia coli [10] it was 4 µg/mL; against Escherichia coli [12] it was 0.063 µg/mL (≈ 0.13 µM). Besides, the Ratio was 32 in [4] and 4 in [11].

`Nc1nc(/C(=N/OCC(=O)O)C(=O)N[C@@H]2C(=O)N3[C@@H]2[S@@+]([O-])C[C@@H]2CC(=O)O[C@@]23C(=O)O)cs1` (stereo in doubt): the minimum inhibitory concentration (MIC) in the assay with Klebsiella pneumoniae [13] amounted to 0.063 µg/mL; with Enterobacter cloacae [14], 0.25 µg/mL; in the assay with Escherichia coli [2], 0.063 µg/mL; with Enterobacter cloacae [3], 0.063 µg/mL; in the assay with Klebsiella pneumoniae [5], 0.125 µg/mL; with Enterobacter cloacae [9], 0.063 µg/mL. Besides, the minimal inhibitory concentration (MIC) with Escherichia coli [10] and in the assay on Klebsiella pneumoniae [19] was 0.125 µg/mL throughout. Moreover, the Activity with Klebsiella pneumoniae [15] turned out to be 2.11 log10CFU; with Klebsiella pneumoniae [20] it was 2.46 log10CFU. Also, the MIC50 was 0.25 µg/mL in the assay on Enterobacterales [16], 0.125 µg/mL with Enterobacterales [18], 0.25 µg/mL in the assay with Enterobacterales [21] and 0.25 µg/mL in the assay on Enterobacterales [22]. Further, the MIC90 in the assay on Enterobacterales [16] came out at 1 µg/mL; in the assay with Enterobacterales [18], 0.25 µg/mL; in the assay on Enterobacterales [21], 0.5 µg/mL; with Enterobacterales [22], 1 µg/mL. The pKi in assay [17] is below 4.22.

`Nc1nc(/C(=N/OC2(C(=O)O)CC2)C(=O)N[C@@H]2C(=O)N3[C@@H]2[S@@+]([O-])C[C@@H]2CC(=O)O[C@@]23C(=O)O)cs1` (stereo in doubt): the MIC was found to be 0.5 µg/mL with Klebsiella pneumoniae [13]; 0.25 µg/mL in the assay on Escherichia coli [2]; 0.25 µg/mL in the assay with Enterobacter cloacae [3]; 0.5 µg/mL in the assay on Klebsiella pneumoniae [5]; 0.25 µg/mL with Enterobacter cloacae [9]; 0.5 µg/mL in the assay on Escherichia coli [10].

Take `Nc1nc(/C(=N/OCC(=O)O)C(=O)N[C@@H]2C(=O)N3[C@@H]2SC[C@@H]2CC(=O)O[C@@]23C(=O)O)cs1` (stereo in doubt): the minimum inhibitory concentration (MIC) with Klebsiella pneumoniae [13] is 0.125 µg/mL; in the assay on Escherichia coli [2] it was 0.063 µg/mL; in the assay with Enterobacter cloacae [3], 8 µg/mL; with Klebsiella pneumoniae [5], 1 µg/mL; in the assay on Enterobacter cloacae [9], 0.125 µg/mL; in the assay on Escherichia coli [10], 0.25 µg/mL. In addition, the MIC with Klebsiella pneumoniae [19] was 0.125 µg/mL. Also, the pKi in assay [17] is 6.40.

What is called MIC is the lowest concentration found to suppress growth. As a reminder, the MIC50 is an inhibitory concentration at the 50% level, which refers to growth in some studies and to a panel of isolates in others. For orientation: MIC90 means the lowest concentration that inhibits either 90% of growth or 90% of the strains tested, depending on the study. By pKi is commonly meant the negative decadic logarithm of the Ki, by convention in mol/L.
